From patent US20250230193A1, “CYCLIC COMPOUND HAVING SELECTIVE KRAS INHIBITORY EFFECT ON HRAS AND NRAS” (CHUGAI SEIYAKU KABUSHIKI KAISHA, priority 2022, published 2025)
Where a SMILES comes first, the peptide text is derived from it. Bridges are numbered along the chain shown (N, C = ends). [ ]: non-standard residue; d: D form. The star is where a group is joined. hPhe(3-Cl-4-CF3) = N[C@@H](CCc1ccc(C(F)(F)F)c(Cl)c1)C(=O)O; NPrPhe(4-CF3) = CCCN[C@@H](Cc1ccc(C(F)(F)F)cc1)C(=O)O; NMeAbu(4,4,4-F3) = CN[C@@H](CC(F)(F)F)C(=O)O; NMeGly(cPent) = CN[C@H](C(=O)O)C1CCCC1; Pro(4,4-F2) = O=C(O)[C@@H]1CC(F)(F)CN1; Gly(cBu) = N[C@H](C(=O)O)C1CCC1; NMeD = CN[C@@H](CC(=O)O)C(=O)O; NMeL = CN[C@@H](CC(C)C)C(=O)O; Morpholide = C1CN(*)CCO1; NMeA = CN[C@@H](C)C(=O)O; Ac5c = NC1(C(=O)O)CCCC1; Aze = O=C(O)[C@@H]1CCN1; Sar = CNCC(=O)O

Key:
[1] = molecular target: GDP-bound NRAS wild-type protein (Homo sapiens, UniProt P01111); assay: Binding to NRAS by surface plasmon resonance (SPR), Single Cycle Kinetics
Sequence of GDP-bound NRAS wild-type protein (P01111 whole entry): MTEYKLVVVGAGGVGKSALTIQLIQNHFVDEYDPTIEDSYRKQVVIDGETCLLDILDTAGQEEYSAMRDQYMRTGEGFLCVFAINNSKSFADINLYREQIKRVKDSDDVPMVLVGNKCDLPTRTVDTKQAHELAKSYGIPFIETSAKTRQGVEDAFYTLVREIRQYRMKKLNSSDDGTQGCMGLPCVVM

[2] = molecular target: GDP-bound HRAS wild-type protein (Homo sapiens, UniProt P01112); assay: Binding to HRAS by surface plasmon resonance (SPR), Single Cycle Kinetics
Sequence of GDP-bound HRAS wild-type protein (P01112 whole entry): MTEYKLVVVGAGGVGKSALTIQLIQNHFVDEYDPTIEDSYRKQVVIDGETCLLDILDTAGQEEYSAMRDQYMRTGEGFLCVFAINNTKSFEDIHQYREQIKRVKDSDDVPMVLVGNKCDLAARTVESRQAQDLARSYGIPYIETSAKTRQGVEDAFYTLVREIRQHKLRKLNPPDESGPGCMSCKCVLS

[3] = SPR, GDP-bound wild-type proteins

CCC[C@H]1C(=O)N[C@@H]([C@@H](C)CC)C(=O)N(C)CC(=O)N(C)[C@H]2C/C=C\CCN(C2=O)[C@@H](Cc2ccc(C)cc2)C(=O)N(C)CC(=O)N[C@@H](CCc2cc(F)c(C(F)(F)F)c(F)c2)C(=O)N2CC3(CC3)C[C@H]2C(=O)NC2(CC(C)(C)C2)C(=O)N(C)[C@@H](CC(F)(F)F)C(=O)N(C)[C@H](C(=O)N(C)C)CC(=O)N1C [PP3003]
NRAS/KRAS (ratio of KD value with respect to GDP-bound NRAS wild-type protein to KD value with respect to KRAS) [1, 3]: AA (a compound having 20 or more is denoted as AA) | HRAS/KRAS (ratio of KD value with respect to GDP-bound HRAS wild-type protein to KD value with respect to KRAS) [2, 3]: A (a compound having 10 or more and less than 20 is denoted as A)

CCO[C@@H]1C[C@H]2C(=O)NC3(CC(C)(C)C3)C(=O)N(C)[C@@H](C3CCCCC3)C(=O)N(C)[C@H](C(=O)N(C)C)CC(=O)N(C)[C@@H](COC)C(=O)N[C@@H]([C@@H](C)CC)C(=O)N(C)CC(=O)N(C)[C@H]3C/C=C\CCN(C3=O)[C@@H](Cc3ccc(C(F)(F)F)cc3)C(=O)N(C)CC(=O)N[C@@H](CCc3ccc(Cl)c(Cl)c3)C(=O)N2C1 [PP2661]
NRAS/KRAS (ratio of KD value with respect to GDP-bound NRAS wild-type protein to KD value with respect to KRAS) ([1]; class symbols): AA (a compound having 20 or more is denoted as AA) | HRAS/KRAS (ratio of KD value with respect to GDP-bound HRAS wild-type protein to KD value with respect to KRAS) ([2]; class symbols): A (a compound having 10 or more and less than 20 is denoted as A)

CCCN1C(=O)[C@@H]2CCN2C(=O)[C@H](C)N(C)C(=O)[C@H](C2CCC2)NC(=O)[C@H](CC(C)C)N(C)C(=O)C[C@@H](C(=O)N2CCOCC2)N(C)C(=O)[C@H](C2CCCC2)N(C)C(=O)C2(CCCC2)NC(=O)[C@@H]2CCCN2C(=O)[C@H](CCc2ccc(C(F)(F)F)c(Cl)c2)NC(=O)CN(C)C(=O)[C@@H]1Cc1ccc(C(F)(F)F)cc1 [PP0271] ([NMeL][Gly(cBu)][NMeA][Aze][NPrPhe(4-CF3)][Sar][hPhe(3-Cl-4-CF3)]P[Ac5c][NMeGly(cPent)][NMeD]-Morpholide; lactam N-11)
NRAS/KRAS (ratio of KD for GDP-bound NRAS wild-type to KD for KRAS) ([1]; SPR): C (A compound having a KD ratio of 0.1 or more and less than 3 is denoted as C) | HRAS/KRAS (ratio of KD for GDP-bound HRAS wild-type to KD for KRAS) ([2]; SPR): B (a compound having 3 or more and less than 10 is denoted as B)

CCCN1C(=O)[C@@H]2CCN2C(=O)[C@H](C)N(C)C(=O)[C@H]([C@@H](C)CC)NC(=O)[C@H](CC(C)C)N(C)C(=O)C[C@@H](C(=O)N(C)C)N(C)C(=O)[C@H](C2CCCC2)N(C)C(=O)C2(CCCC2)NC(=O)[C@@H]2CC(F)(F)CN2C(=O)[C@H](CCc2ccc(C(F)(F)F)c(Cl)c2)NC(=O)CN(C)C(=O)[C@@H]1Cc1ccc(C(F)(F)F)cc1 [PP0436] ([NMeL]I[NMeA][Aze][NPrPhe(4-CF3)][Sar][hPhe(3-Cl-4-CF3)][Pro(4,4-F2)][Ac5c][NMeGly(cPent)][NMeD]-NMe2; lactam N-11)
NRAS/KRAS (ratio of KD value with respect to GDP-bound NRAS wild-type protein to KD value with respect to KRAS) ([1]; SPR): C (A compound having a KD ratio of 0.1 or more and less than 3 is denoted as C) | HRAS/KRAS (ratio of KD value with respect to GDP-bound HRAS wild-type protein to KD value with respect to KRAS) ([2]; SPR): C (A compound having a KD ratio of 0.1 or more and less than 3 is denoted as C)

CCO[C@@H]1C[C@H]2C(=O)NC3(CCC3)C(=O)N(C)[C@@H](C3CCCC3)C(=O)N(C)[C@H](C(=O)N(C)CCOC)CC(=O)N(C)[C@@H](CC)C(=O)N[C@@H]([C@@H](C)CC)C(=O)N(C)CC(=O)N(C)[C@H]3C/C=C\CCN(C3=O)[C@@H](Cc3ccc(C(F)(F)F)cc3)C(=O)N(C)CC(=O)N[C@@H](CCc3ccc4sccc4c3)C(=O)N2C1 [PP1322]
NRAS/KRAS (ratio of KD value for GDP-bound NRAS wild-type protein to KD value for KRAS) ([1]; SPR, KD ratio class): A (a compound having 10 or more and less than 20 is denoted as A) | HRAS/KRAS (ratio of KD value for GDP-bound HRAS wild-type protein to KD value for KRAS) ([2]; SPR, KD ratio class): A (a compound having 10 or more and less than 20 is denoted as A)

CC[C@H](C)[C@@H]1NC(=O)[C@H](COC)N(C)C(=O)C[C@@H](C(=O)N2CCCCC2)N(C)C(=O)[C@H](C2CCCC2)N(C)C(=O)C2(CC(C)(C)C2)NC(=O)[C@@H]2C[C@@H](OC(C)C)CN2C(=O)[C@H](CCc2ccc(Cl)c(Cl)c2)NC(=O)CN(C)C(=O)[C@H](Cc2ccc(C(F)(F)F)cc2)N2CC/C=C\C[C@@H](C2=O)N(C)C(=O)CN(C)C1=O [PP2671]
NRAS/KRAS (ratio of KD value with respect to GDP-bound NRAS wild-type protein to KD value with respect to KRAS) ([1]; class symbols): A (a compound having 10 or more and less than 20 is denoted as A) | HRAS/KRAS (ratio of KD value with respect to GDP-bound HRAS wild-type protein to KD value with respect to KRAS) ([2]; class symbols): A (a compound having 10 or more and less than 20 is denoted as A)

CC[C@H](C)[C@@H]1NC(=O)[C@H](CC)N(C)C(=O)C[C@@H](C(=O)N(C)CC)N(C)C(=O)[C@H](C2CCCC2)N(C)C(=O)C2(CC(C)(C)C2)NC(=O)[C@@H]2C[C@H](C)CN2C(=O)[C@H](CCc2ccc(C(F)(F)F)c(Cl)c2)NC(=O)CN(C)C(=O)[C@H](Cc2ccc(C)cc2)N2CC/C=C\C[C@@H](C2=O)N(C)C(=O)CN(C)C1=O [PP1874]
NRAS/KRAS (ratio of KD value for NRAS to KD value for KRAS) ([1]; KD ratio, GDP-bound NRAS wild-type vs GDP-bound KRAS wild-type, SPR): A (a compound having 10 or more and less than 20 is denoted as A) | HRAS/KRAS (ratio of KD value for HRAS to KD value for KRAS) ([2]; KD ratio, GDP-bound HRAS wild-type vs GDP-bound KRAS wild-type, SPR): A (a compound having 10 or more and less than 20 is denoted as A)

CCCN1C(=O)CN(C)C(=O)CN(C)C(=O)[C@H]([C@@H](C)CC)NC(=O)[C@H](CC(F)(F)F)N(C)C(=O)C[C@@H](C(=O)N2CCOCC2)N(C)C(=O)[C@H](C2CCCC2)N(C)C(=O)C2(CCCC2)NC(=O)[C@@H]2CCCN2C(=O)[C@H](CCc2ccc(C(F)(F)F)c(Cl)c2)NC(=O)CN(C)C(=O)[C@@H]1Cc1ccc(C(F)(F)F)cc1 [PP0187] ([NMeAbu(4,4,4-F3)]I[Sar][Sar][NPrPhe(4-CF3)][Sar][hPhe(3-Cl-4-CF3)]P[Ac5c][NMeGly(cPent)][NMeD]-Morpholide; lactam N-11)
NRAS/KRAS (ratio of KD for GDP-bound NRAS wild-type to KD for KRAS) ([1]; SPR): B (a compound having 3 or more and less than 10 is denoted as B) | HRAS/KRAS (ratio of KD for GDP-bound HRAS wild-type to KD for KRAS) ([2]; SPR): C (A compound having a KD ratio of 0.1 or more and less than 3 is denoted as C)
